Laboratory results reported in patent US20240042051A1, “MCL-1 INHIBITOR ANTIBODY-DRUG CONJUGATES AND METHODS OF USE” (Novartis AG, priority 2020, published 2024).

Tests used:
NCI-H929 = test: CellTiter-Glo proliferation assay (Example 7); type: cell-based; conditions: 5 days
Method: (§1) The CD48 MCL-1 antibody drug conjugates were tested against three endogenous cancer cell lines: NCI-H929 (ATCC No. CRL-9068 cultured in RPMI-1640+10% FBS+0.05 mM 2-mercaptoethanol), KMS-21 BM (JCRB No. JCRB1185 cultured in RPMI-1640+10% FBS) and KMS-27 (JCRB No. JCRB1188 cultured in RPMI-1640+10% FBS).
(§2) The ability of the MCL-1 antibody drug conjugates to inhibit cell proliferation and survival was assessed using the Promega CellTiter-Glo® proliferation assay. ADCs were generated generally as described in Example 6. Cell lines were cultured in media that is optimal for their growth at 5% CO2, 37° C. in a tissue culture incubator. Prior to seeding for the proliferation assay, the cells were split at least 2 days before the assay to ensure optimal growth density. On the day of seeding, cell viability and cell density were determined using a cell counter (Vi-Cell XR Cell Viability Analyzer, Beckman Coulter). Cells with higher than 85% viability were seeded in white clear bottom 384-well TC treated plates (Corning cat. #3765). Cells were seeded at a density of 1,000 cells per well in 45 μL of standard growth media. Plates were incubated at 5% CO2, 37° C. overnight in a tissue culture incubator. The next day, free MCL-1 payload (P1), targeting MCL-1 ADCs, and non-targeting isotype (IgG) ADCs were prepared at 10× in standard growth media. The prepared MCL-1 payload (P1) treatment was then added to the cells resulting in final concentrations of 0.005-100 nM and a final volume of 50 uL per well. The prepared CD48 targeting and isotype matched non-targeting control ADC treatments were added to the cells resulting in final concentrations of 0.015-300 nM and a final volume of 50 uL per well. Each drug concentration was tested in quadruplets. Plates were incubated at 5% CO2, 37° C. for 5 days in a tissue culture incubator, after which cell viability was assessed through the addition of 25 μL of CellTiter Glo® (Promega, cat #G7573), a reagent which lyses cells and measures total adenosine triphosphate (ATP) content. Plates were incubated at room temperature for 10 minutes to stabilize luminescent signals prior to reading using a luminescence reader (EnVision Multilabel Plate Reader, PerkinElmer). To evaluate the effect of the drug treatments, luminescent counts from wells containing untreated cells (100% viability) were used to normalize treated samples. A variable slope model was applied to fit a nonlinear regression curve to the data in GraphPad PRISM version 7.02 software. IC50 and Amax values were extrapolated from the resultant curves.

KMS-27 = test: CellTiter-Glo proliferation assay (Example 7); type: cell-based; conditions: 5 days
Method: as §1, §2

KMS-21-BM = test: CellTiter-Glo proliferation assay (Example 7); type: cell-based; conditions: 5 days
Method: as §1, §2

[1] = test system: NCI-H929, KMS-21 BM and KMS-27 cancer cell lines; test: CellTiter-Glo proliferation assay (Example 7), summary over cell lines; type: cell-based; conditions: read-out: IC50 values, range over representative cancer cell lines
Method: as §1
The ability of the MCL-1 antibody drug conjugates to inhibit cell proliferation and survival was assessed using the Promega CellTiter-Glo® proliferation assay. ADCs were generated generally as described in Example 6. Cell lines were cultured in media that is optimal for their growth at 5% CO2, 37° C. in a tissue culture incubator. Prior to seeding for the proliferation assay, the cells were split at least 2 days before the assay to ensure optimal growth density. On the day of seeding, cell viability and cell density were determined using a cell counter (Vi-Cell XR Cell Viability Analyzer, Beckman Coulter). […] Plates were incubated at 5% CO2, 37° C. for 5 days in a tissue culture incubator, after which cell viability was assessed through the addition of 25 μL of CellTiter Glo® (Promega, cat #G7573), a reagent which lyses cells and measures total adenosine triphosphate (ATP) content. Plates were incubated at room temperature for 10 minutes to stabilize luminescent signals prior to reading using a luminescence reader (EnVision Multilabel Plate Reader, PerkinElmer). […]

KMS27 xenografts = test: KMS27 multiple myeloma xenograft, tumor growth inhibition and delay; type: in vivo, NSG mice; conditions: 50 mg/kg QD3, PO, single agent
Method: The in vivo therapeutic effect of two CD48-targeting MCL-1 ADCs formulated in Phosphate-Buffered Saline (PBS) was determined in KMS27 multiple myeloma model after intravenous (IV) administration.
KMS27 cells, obtained from JCRB, were cultured in RPMI supplemented with 10% FBS. Cells were resuspended in 50% matrigel (BD Biosciences) and 0.1 ml containing 10×10^6 cells were subcutaneously inoculated into the right flank of female NSG mice, provided by Jax. When tumors reached the appropriate volume, mice were randomized, 6 animals per group, using Easy stat software. Anti-CD48 NY920_CysmAb Fc silent, anti-CD48 NY938_CysmAb Fc silent, anti-CD48 NY920_CysmAb Fc silent_L42-P1 and anti-CD48 NY938_CysmAb Fc silent_L42-P1 (2.5 and/or 5 mg/kg) were injected once IV in PBS in combination with ABT-199 (50 mg/kg, PO for 3 consecutive days=QD3 in PEG/ethanol/phosal). Mice body weight was monitored three times a week and tumor size measured using electronic calipers. Tumor volume was estimated by measuring the minimum and maximum tumor diameters using the formula: (minimum diameter)^2 (maximum diameter)/2. […]
With DTV (Delta Tumor Volume) at Dx, calculated being TV at Dx-TV at Randomization. Tumor Growth Delay (TGD) was calculated as the number of days required for the median tumor volume in each group to reach back the starting tumor volume (at randomization). […]

KMS-21-BM xenografts = test: KMS-21-BM multiple myeloma xenograft, tumor growth inhibition and delay; type: in vivo, NSG mice; conditions: 0.5 mg/kg QD, single agent
Method: The in vivo therapeutic effect of a CD48-targeting MCL-1 ADC formulated in Phosphate-Buffered Saline (PBS) was determined in KMS-21-BM multiple myeloma model after intravenous (IV) administration.
KMS-21-BM cells, obtained from JCRB, were cultured in RPMI supplemented with 10% FBS. Cells were resuspended in 100% matrigel (BD Biosciences) and 0.1 ml containing 10×10^6 cells were subcutaneously inoculated into the right flank of female NSG mice, provided by Jax. When tumors reached the appropriate volume, mice were randomized, 6 animals per group, using Easy stat software. IgG1-Linker-Payload Fc WT, anti-CD48 NY920_CysmAb Fc WT, anti-CD48 NY920_CysmAb Fc WT_L42-P1 (10 and/or 30 mg/kg) and Bortezomib (0.5 mg/kg) were injected, alone or in combination, once IV in PBS and NaCl 0.9%, respectively. Mice body weight was monitored three times a week and tumor size measured using electronic calipers. Tumor volume was estimated by measuring the minimum and maximum tumor diameters using the formula: (minimum diameter)^2 (maximum diameter)/2. Tumor growth inhibition on day 21 was calculated using the formula: […]
With DTV (Delta Tumor Volume) at Dx, calculated being TV at Dx−TV at Randomization. Tumor Growth Delay (TGD) was calculated as the number of days required for the median tumor volume in each group to reach 500 mm^3. […]

COc1ccccc1-c1nccc(COc2ccccc2C[C@@H](Oc2ncnc3sc(-c4ccc(F)cc4)c(-c4ccc(OCCN5CCN(C)CC5)c(Cl)c4C)c23)C(=O)O)n1 [P1, (2R)-2-[5-[3-chloro-2-methyl-4-[2-(4-methylpiperazin-1-yl)ethoxy]phenyl]-6-(4-fluorophenyl)thieno[2,3-d]pyrimidin-4-yl]oxy-3-[2-[[2-(2-methoxyphenyl)pyrimidin-4-yl]methoxy]phenyl]propanoic acid]
Amax (Span) (NCI-H929): 110.3 | IC50 (NCI-H929; Homo sapiens, 120 h): 4.73 nM | IC50 (KMS-27; 120 h): 11.2 nM | Amax (Span) (KMS-27): 99 | IC50 (KMS-21-BM; 120 h): 1.16 nM | Amax (Span) (KMS-21-BM): 100.9 | IC50 [1]: 1.16 to 11.2 nM

CC1(C)CCC(CN2CCN(c3ccc(C(=O)NS(=O)(=O)c4ccc(NCC5CCOCC5)c([N+](=O)[O-])c4)c(Oc4cnc5[nH]ccc5c4)c3)CC2)=C(c2ccc(Cl)cc2)C1 [ABT-199, venetoclax]
% TGI (d4) (KMS27 xenografts): 120.82% | TGD (KMS27 xenografts; to reach back starting tumor volume): 6.27 days

CC(C)C[C@H](NC(=O)[C@H](Cc1ccccc1)NC(=O)c1cnccn1)B(O)O [Bortezomib]
% TGI (d21) (KMS-21-BM xenografts; IV (once)): 88.09% | TGD (KMS-21-BM xenografts; IV, median tumor volume to reach 500 mm^3): 42.53 days
